# Measurements from US7799809B2, “Carboxamide compounds and their use as calpain inhibitors” (Abbott GmbH & Co. KG, priority 2006, dated 2010).
# Key:
# Type in all cases: biochemical
# cathepsin B = molecular target: T1, cathepsin B (Homo sapiens, UniProt P07858); experiment: Cathepsin B enzyme inhibition in vitro (kinetic fluorescence assay); conditions: cathepsin B isolated from human liver vs calpain I
# T1 construct: cathepsin B—isolated from human liver (Calbiochem #219362); purchased Calbiochem 219362; host or cells: human liver (tissue-derived)
# Outline: (§1)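 Cathepsin B (0.25 nM, human liver) with 100 μM Z-Phe-Arg-AMC; L (1 nM, human liver) with 2 μM Z-Phe-Arg-AMC; S (0.5 nM, recombinant) with 20 μM Z-Val-Val-Arg-AMC. pH 6.0 MES buffer, 2.5 mM L-cysteine, room temperature. Kinetic fluorescence (ex 390/em 460 nm); apparent Ki from IC50 by Cheng-Prusoff.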
# cathepsin L = molecular target: T2, cathepsin L (Homo sapiens, UniProt P07711); experiment: Cathepsin L enzyme inhibition in vitro (kinetic fluorescence assay); conditions: cathepsin L isolated from human liver vs calpain I
# T2 construct: cathepsin L—isolated from human liver (Calbiochem #219402); purchased Calbiochem 219402; host or cells: human liver (tissue-derived)
# Outline: as §1
# cathepsin S = molecular target: T3, cathepsin S (Homo sapiens, UniProt P25774); experiment: Cathepsin S enzyme inhibition in vitro (kinetic fluorescence assay); conditions: recombinant human cathepsin S vs calpain I
# T3 construct: purchased Calbiochem 219343; host or cells: E. coli
# Outline: as §1
# cathepsin K = molecular target: T4, cathepsin K (Homo sapiens, UniProt P43235); experiment: Cathepsin K enzyme inhibition in vitro (kinetic fluorescence assay); conditions: cathepsin K activated from recombinant human procathepsin K vs calpain I
# T4 construct: purchased Calbiochem 342001; host or cells: E. coli
# T4 sequence (P43235 115-329): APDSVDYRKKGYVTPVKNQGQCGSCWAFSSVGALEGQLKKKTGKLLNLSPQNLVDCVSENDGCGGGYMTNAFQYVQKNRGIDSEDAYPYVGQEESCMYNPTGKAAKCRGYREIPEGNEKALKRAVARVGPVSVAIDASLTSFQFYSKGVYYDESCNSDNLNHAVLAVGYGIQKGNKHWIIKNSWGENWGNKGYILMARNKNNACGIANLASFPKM
# T3 sequence (P25774 115-331): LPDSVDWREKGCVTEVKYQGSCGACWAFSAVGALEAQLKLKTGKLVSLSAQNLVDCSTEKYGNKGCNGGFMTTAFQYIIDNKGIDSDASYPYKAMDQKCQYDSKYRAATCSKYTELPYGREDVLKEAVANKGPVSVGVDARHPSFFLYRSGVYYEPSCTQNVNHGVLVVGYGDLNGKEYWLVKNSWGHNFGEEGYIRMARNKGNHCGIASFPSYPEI
# T2 sequence (P07711 114-333): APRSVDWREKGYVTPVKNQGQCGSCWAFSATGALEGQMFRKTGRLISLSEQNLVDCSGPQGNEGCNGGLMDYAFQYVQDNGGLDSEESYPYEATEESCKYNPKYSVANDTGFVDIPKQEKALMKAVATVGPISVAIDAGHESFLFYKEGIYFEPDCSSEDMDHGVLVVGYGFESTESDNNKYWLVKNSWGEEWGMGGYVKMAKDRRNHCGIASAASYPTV
Structure (SMILES),Sel cat. B: Ki(cathepsin B)/Ki(calpain) ratio (cathepsin B),Sel cat. L: Ki(cathepsin L)/Ki(calpain) ratio (cathepsin L),Sel cat. S: Ki(cathepsin S)/Ki(calpain) ratio (cathepsin S),Sel cat. K: Ki(cathepsin K)/Ki(calpain) ratio (cathepsin K)
"NC(=O)C(=O)C(Cc1ccc(F)cc1)NC(=O)c1cccnc1-n1ccc(-c2ccccc2OC(F)(F)F)n1 (stereo not drawn) [Example 152, N-{3-Amino-1-[(4-fluorophenyl)methyl]-2,3-dioxopropyl}-2-(3-{2-[(trifluoromethyl)oxy]phenyl}-1H-pyrazol-1-yl)pyridine-3-carboxamide]",++ (++ means a Ki(cathepsin B)/Ki(calpain) ratio of ≧30),++ (++ means a Ki(cathepsin L)/Ki(calpain) ratio of ≧50),++ (++ means a Ki(cathepsin S)/Ki(calpain) ratio of ≧100),++ (++ means a Ki(cathepsin K)/Ki(calpain) ratio of ≧30)
"NC(=O)C(=O)C(Cc1ccccc1)NC(=O)c1cccnc1-n1ccc(-c2ccc(F)cc2F)n1 (stereo not drawn) [Example 94, N-[3-Amino-2,3-dioxo-1-(phenylmethyl)propyl]-2-[3-(2,4-difluorophenyl)-1H-pyrazol-1-yl]pyridine-3-carboxamide]",++ (++ means a Ki(cathepsin B)/Ki(calpain) ratio of ≧30),++ (++ means a Ki(cathepsin L)/Ki(calpain) ratio of ≧50),++ (++ means a Ki(cathepsin S)/Ki(calpain) ratio of ≧100),+ (+ means 10≦Ki(cathepsin K)/Ki(calpain)<30)
"NC(=O)C(=O)C(Cc1ccccc1)NC(=O)c1cccnc1-n1cc2c(n1)-c1cc(Cl)ccc1OC2 (stereo not drawn) [Example 140, N-[3-Amino-2,3-dioxo-1-(phenylmethyl)propyl]-2-(8-chlorochromeno[4,3-c]pyrazol-2(4H)-yl)pyridine-3-carboxamide]",+ (+ means 10≦Ki(cathepsin B)/Ki(calpain)<30),++ (++ means a Ki(cathepsin L)/Ki(calpain) ratio of ≧50),++ (++ means a Ki(cathepsin S)/Ki(calpain) ratio of ≧100),++ (++ means a Ki(cathepsin K)/Ki(calpain) ratio of ≧30)
"COc1ccc(CC(NC(=O)c2cccnc2-n2ccc(-c3ccc4c(c3)OC(F)(F)O4)n2)C(=O)C(N)=O)cc1 (stereo not drawn) [Example 137, N-(3-Amino-1-{[4-(methyloxy)phenyl]methyl}-2,3-dioxopropyl)-2-[3-(2,2-difluoro-1,3-benzodioxol-5-yl)-1H-pyrazol-1-yl]pyridine-3-carboxamide]",+ (+ means 10≦Ki(cathepsin B)/Ki(calpain)<30),++ (++ means a Ki(cathepsin L)/Ki(calpain) ratio of ≧50),++ (++ means a Ki(cathepsin S)/Ki(calpain) ratio of ≧100),+ (+ means 10≦Ki(cathepsin K)/Ki(calpain)<30)
"COc1ccc(-c2ccn(-c3ncccc3C(=O)NC(Cc3ccccc3)C(=O)C(N)=O)n2)c(OC)c1 (stereo not drawn) [Example 117, N-[3-Amino-2,3-dioxo-1-(phenylmethyl)propyl]-2-{3-[2,4-bis(methyloxy)phenyl]-1H-pyrazol-1-yl}pyridine-3-carboxamide]",++ (++ means a Ki(cathepsin B)/Ki(calpain) ratio of ≧30),++ (++ means a Ki(cathepsin L)/Ki(calpain) ratio of ≧50),++ (++ means a Ki(cathepsin S)/Ki(calpain) ratio of ≧100),++ (++ means a Ki(cathepsin K)/Ki(calpain) ratio of ≧30)
"NC(=O)C(=O)C(Cc1ccccc1)NC(=O)c1cccnc1-n1cc(Cl)c(-c2ccc(F)cc2)n1 (stereo not drawn) [Example 184, N-[3-Amino-2,3-dioxo-1-(phenylmethyl)propyl]-2-[4-chloro-3-(4-fluorophenyl)-1H-pyrazol-1-yl]pyridine-3-carboxamide]",+ (+ means 10≦Ki(cathepsin B)/Ki(calpain)<30),++ (++ means a Ki(cathepsin L)/Ki(calpain) ratio of ≧50),++ (++ means a Ki(cathepsin S)/Ki(calpain) ratio of ≧100),+ (+ means 10≦Ki(cathepsin K)/Ki(calpain)<30)
